Laboratory results: PubChem BioAssay AID1963966 (Molecular Pharmacology Branch, DTP, NCI, 2024)
Where “and” joins values, the source holds several entries; their conditions need not be identical. Equal entries are not always repeated.

Test system: 935938-334-R-J1-PDC spheroids with HUVEC/MSC, viability
Assay: Anticancer human tumor 935938-334-R-J1-PDC patient-derived small intestine adenocarcinoma cell line growth inhibition [PI3K]
Details: for viability, T/C: stronger effect = lower value
Excerpt: Combinatorial screen of targeted agents with the PI3K inhibitors inavolisib, alpelisib, duvelisib, and copanlisib in multi-cell type tumor spheroids
A high-throughput screen of multi-cell type tumor spheroids was designed to identify active combinations of targeted small molecules and PI3K pathway inhibitors. Complex spheroids include a stromal component modeled by human endothelial cells (HUVEC) and fibroblasts modeled by human mesenchymal stem cells (MSCs). The concentration ranges selected for each drug and investigational agent were based upon clinically achievable concentrations if the clinical Cmax of the agent was known.
Compounds. The drugs and investigational agents: inavolisib (NSC800729), alpelisib (NSC765974), duvelisib (NSC772469), copanlisib (NSC816437), ipatasertib (NSC767898), afuresertib (NSC778305), talazoparib (NSC767125), sapanisertib (NSC764658), selumetinib (NSC741078), tovorafenib (DAY101, NSC766906), vemurafenib (NSC761431), ravoxertinib (NSC781343), sotorasib (NSC818433), MRTX1133 (NSC 836407), abemaciclib (NSC 768073), palbociclib (NSC758247), venetoclax (NSC 766270), SY5609 (NSC837396), enzalutamide (NSC755605), and darolutamide (NSC825331), were obtained from the National Cancer Institute (NCI) Developmental Therapeutics Program Chemical Repository. The FDA-approved anticancer drug set is available from the NCI Developmental Therapeutics Program. […] The stock solutions were prepared in dimethyl sulfoxide (DMSO, Sigma-Aldrich, St. Louis, MO, cat. D2650) at 800-fold the tested concentration and stored at -70 degrees C prior to their use. All drugs and investigational agents were tested over a range starting from a high concentration at or near the clinical Cmax and decreasing in half-log increments. If the clinical Cmax for an agent had not been determined, the highest concentration tested was 10 microM.
Cell Culture. All cells were maintained in an incubator at 37 degrees C and 5% CO2 with 95% humidity. The PDC lines were cultured according to standard operating procedures established by the NCI PDMR (https://pdmr.cancer.gov/sops/default.htm). All PDCs were thawed and cultured in Matrigel-coated flasks prepared with a working solution of 1X Ham's F-12 nutrient mix, without supplementation (Invitrogen, Waltham, MA, cat. 11765054), 100 U/mL penicillin-streptomycin (Invitrogen, cat. 15140122), and 2.5% Matrigel (Corning Inc., Corning, NY, cat. 354248) for the first three passages. The 354836-022-R-J1-PDC, 475296-252-R-J1-PDC, and 997726-040-R-J2-PDC lines were cultured in 6A media, which includes advanced DMEM/F-12 (Thermo Fisher Scientific, cat. 12634028), 10 mM HEPES (Thermo Fisher Scientific, cat. 15630080), 1X GlutaMAX supplement (Thermo Fisher Scientific, cat. 35050061), 0.1 mg/mL primocin (InvivoGen, San Diego, CA, cat. ant-pm-2), 10% defined fetal bovine serum, heat inactivated (HyClone Laboratories Inc., Logan, UT, cat. SH30070.03HI), 50% L-WRN conditioned media (ATCC, cat. CRL-3276), 1.25 mM N-Acetyl-L-cysteine (Sigma-Aldrich, cat. A9165), 10 mM nicotinamide (Sigma-Aldrich, cat. N0636), 1X B-27 supplement (Thermo Fisher Scientific, cat. 17504044), 1X N-2 supplement (Thermo Fisher Scientific, cat. 17502048), and 10 microM Y-27632 dihydrochloride (Tocris Bioscience, Bristol, United Kingdom, cat. 1254). The 624824-186-R-J2-PDC line was cultured in 6C/Colon 1B media, which includes all 6A media components plus 50 ng/mL human EGF recombinant protein (Thermo Fisher Scientific, cat. PHG0311). […]
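Further: compound exposure lasted seven days before viability was read.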
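Wherever viability, T/C is given: percent of vehicle DMSO treated spheroid viability so 100% = untreated.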

CCN1CCN(Cc2ccc(Nc3ncc(F)c(-c4cc(F)c5nc(C)n(C(C)C)c5c4)n3)nc2)CC1 + Cc1nc(NC(=O)N2CCCC2C(N)=O)sc1-c1ccnc(C(C)(C)C(F)(F)F)c1
IC50 (curve of first compound, second compound 0.0316 µM): 0.148 µM | IC50 (curve of first compound, second compound 0.1 µM): 0.0432 µM | IC50 (curve of first compound, second compound 0.316 µM): 0.0555 µM | IC50 (curve of first compound, second compound 1 µM): 0.0188 µM | IC50 (curve of first compound, second compound 3.16 µM): < 0.00316 µM | IC50 (curve of first compound, second compound 10 µM): < 0.00316 µM | viability, T/C (second compound 0.0316 µM, first compound 0.00316 µM): 88.8% | viability, T/C (second compound 0.0316 µM, first compound 0.01 µM): 68.9% | viability, T/C (second compound 0.0316 µM, first compound 0.0316 µM): 64.3% | viability, T/C (second compound 0.0316 µM, first compound 0.1 µM): 57.2% | viability, T/C (second compound 0.0316 µM, first compound 0.316 µM): 43% | viability, T/C (second compound 0.0316 µM, first compound 1 µM): 32.4% | viability, T/C (second compound 0.1 µM, first compound 0.00316 µM): 94.5% | viability, T/C (second compound 0.1 µM, first compound 0.01 µM): 92.2% | viability, T/C (second compound 0.1 µM, first compound 0.0316 µM): 53.3% | viability, T/C (second compound 0.1 µM, first compound 0.1 µM): 45.6% | viability, T/C (second compound 0.1 µM, first compound 0.316 µM): 37.5% | viability, T/C (second compound 0.1 µM, first compound 1 µM): 35.4% | viability, T/C (second compound 0.316 µM, first compound 0.00316 µM): 86.6% | viability, T/C (second compound 0.316 µM, first compound 0.01 µM): 71.4% | viability, T/C (second compound 0.316 µM, first compound 0.0316 µM): 52.4% | viability, T/C (second compound 0.316 µM, first compound 0.1 µM): 44.9% | viability, T/C (second compound 0.316 µM, first compound 0.316 µM): 41.2% | viability, T/C (second compound 0.316 µM, first compound 1 µM): 32.4% | viability, T/C (second compound 1 µM, first compound 0.00316 µM): 69.7% | viability, T/C (second compound 1 µM, first compound 0.01 µM): 59.2% | viability, T/C (second compound 1 µM, first compound 0.0316 µM): 40.8% | viability, T/C (second compound 1 µM, first compound 0.1 µM): 37.7% | viability, T/C (second compound 1 µM, first compound 0.316 µM): 26.1% | viability, T/C (second compound 1 µM, first compound 1 µM): 28.3% | viability, T/C (second compound 3.16 µM, first compound 0.00316 µM): 41.5% | viability, T/C (second compound 3.16 µM, first compound 0.01 µM): 44.6% | viability, T/C (second compound 3.16 µM, first compound 0.0316 µM): 42.6% | viability, T/C (second compound 3.16 µM, first compound 0.1 µM): 30.7% | viability, T/C (second compound 3.16 µM, first compound 0.316 µM): 25.7% | viability, T/C (second compound 3.16 µM, first compound 1 µM): 30.1% | viability, T/C (second compound 10 µM, first compound 0.00316 µM): 39.2% | viability, T/C (second compound 10 µM, first compound 0.01 µM): 44.7% | viability, T/C (second compound 10 µM, first compound 0.0316 µM): 34.1% | viability, T/C (second compound 10 µM, first compound 0.1 µM): 26.2% | viability, T/C (second compound 10 µM, first compound 0.316 µM): 35% | viability, T/C (second compound 10 µM, first compound 1 µM): 28.5%

CC(C)n1nc(-c2ccc3oc(N)nc3c2)c2c(N)ncnc21
viability, T/C (compound 0.000316 µM): 94.6% [middle of 4 runs] | viability, T/C (compound 0.001 µM): 105% [middle of 4 runs] | viability, T/C (compound 0.00316 µM): 106% [middle of 4 runs] | viability, T/C (compound 0.0316 µM): 79.1% [middle of 4 runs] | viability, T/C (compound 0.1 µM): 52.8% [middle of 4 runs] | IC50 (curve of compound): > 0.1 µM and 0.0905 µM
